Patent publication EP0172581B1, “Disaccharide derivatives” (DAIICHI SEIYAKU CO., LTD., priority 1984, dated 1986)
Read-outs that look alike come from different tables or passages of the source.

Tests used:
Japanese white rabbits = type: in vivo; details: for Number of Necrosed Animals/Number of Tested Animals: 100 µg LPS intravenously 20 hours later
Procedure: The local Shwartzman reaction test (Test I) is examined to determine the phenomenon of necrosis, at the site where a test compound was injected, induced by intravenous injection of lipopolysaccharide (hereinafter referred to as LPS) after 20 hours from intracutaneous injection of the test compound to test animals, preferably in rabbits.
The test on Shwartzman reaction specific to endotoxin was carried out as follows using Japanese white rabbits (female, weighing around 3 kg). That is, Japanese domestic white rabbits were intracutaneously injected with the test compound. Twenty hours later, 100 µg of LPS extracted from Salmonella minnesota R595, Re-mutant was intravenously injected to each rabbit. The Shwartzman reaction-induction activity was expressed in terms of number of animals that suffered from hemorrhagic necrosis at the site that had been prepared by intracutaneous injection of the test compound.

[1] = system: isolated murine lymphocytes (splenocytes); experiment: Test on mitogenicity ([³H]-labeled thymidine uptake); type: cell-based, BALB/c nu/nu mice; details: T/C, 48 hours incubation
Procedure: Spleen of BALB/c nu/nu mice (male; 8-week old) was minced, and lymphocytes collected from the minced spleen were incubated with graded doses of test compounds in RPMI 1640 medium without fetal bovine serum at 37°C at a concentration of 1 x 10⁵ to 1 x 10⁶ lymphocytes per mℓ for 48 hours. Twenty-four hours before the completion of the incubation, [³H]-labeled thymidine (manufactured by New England Nuclear) was added to the culture. After the completion of the incubation, cells were collected on glass micro-fiber paper and dried, and the radioactivity of [³H]-labeled thymidine incorporated into the cells was measured. The ratio of thymidine uptake in the test culture to which the test compound had been added to that in the respective control culture was determined as a stimulation index. The higher the stimulation index, the higher the mitogenicity.

[2] = system: Japanese domestic white rabbits; experiment: Test II - test on pyrogenicity (Japanese Pharmacopoeia); type: in vivo; details: for Number of Febrile Animals/Number of Tested Animals: 0.1 µg/kg intravenously, febrile = temperature increase of 0.6°C or more
Procedure: The pyrogenicity of the compounds of this invention was determined in terms of body temperature increase in rabbits after intravenous injection of the test compound in accordance with the test method of pyrogenicity defined in Japanese Pharmacopoeia. That is, the rectal temperatures of Japanese domestic white rabbits (body weight: 2 to 2.5 kg) were measured 3 times at one-hour intervals. When the temperature in the second and third measurements were substantially equal, the third temperature was taken as a reference temperature. Within 15 minutes after the third measurement, the test compound dissolved in pyrogen-free distilled water was injected in the ear vein, and the rectal temperature was measured 3 times at one-hour intervals after injection. A difference between the reference temperature and the maximum temperature was taken as an increase of body temperature, and the pyrogenicity of the test compound was expressed by the number of febrile animals showing a temperature increase of 0.6°C or more.

[3] = system: clotting enzyme of Tachypleus tridentatus (horseshoe crab) amoebocytes; experiment: Test III - Limulus test (toxicolor test); type: biochemical; details: activity of 1 mg test compound converted to amount of LPS from E. coli 0111:B4
Description: Also, the compounds of this invention are very useful as a standard reagent for determination of endotoxin in the samples to be tested, and their activity has been confirmed by the local Shwartzman reaction test (Test I in Test Example 3), the pyrogenicity test (Test II in Test Example 3), and the activation of clotting enzyme of Tachypleus tridentatus (horseshoe crab) amoebocytes, i.e., Limulus test (Test III in Test Example 3).
The pyrogenicity of the compounds of this invention was also determined by Limulus test (toxicolor test). That is, the test compound was dissolved in a pyrogen-free 0.1% (vol/vol) triethylamine aqueous solution to a concentration of 2 mg/mℓ and diluted with pyrogen-free distilled water to a concentration of 4 X 10⁻¹ mg/mℓ. Subsequently, dilute aqueous solutions having concentrations of from 4 X 10⁻¹ mg/mℓ to 4 × 10⁻¹⁰ mg/mℓ were prepared by serial 10-fold dilution. […] Thereafter, 0.5 mℓ of sodium nitrite was added to the culture, and after stirring 0.1 mℓ each of ammonium sulfamate and N-(1-naphthyl)-ethylenediamine were added thereto to develop a color, and absorbance at a wavelength of 545 nm was determined. […]

Structure (SMILES) | Number of Necrosed Animals/Number of Tested Animals (Japanese white rabbits; 20 µg/site intracutaneously) | Stimulation Index ±S.E. ([1]; 0.01 µg/mℓ test compound added) | Stimulation Index ±S.E. ([1]; 0.1 µg/mℓ test compound added) | Stimulation Index ±S.E. ([1]; 1 µg/mℓ test compound added) | Number of Febrile Animals/Number of Tested Animals [2] | Converted LPS Amount [3] [mg] | Number of Necrosed Animals/Number of Tested Animals (Japanese white rabbits; 80 µg/site intracutaneously) | reaction in Test I (local Shwartzman reaction) (Japanese white rabbits; summary in words) | reaction in Test II (pyrogenicity) ([2]; summary in words)
CCCCCCCCCCCCCC(=O)O[C@H](CCCCCCCCCCC)CC(=O)O[C@@H]1[C@@H](NC(=O)C[C@@H](CCCCCCCCCCC)OC(=O)CCCCCCCCCCC)[C@H](OC[C@H]2O[C@H](OP(=O)(O)O)[C@H](NC(=O)C[C@H](O)CCCCCCCCCCC)[C@@H](OC(=O)C[C@H](O)CCCCCCCCCCC)[C@@H]2O)O[C@H](CO)[C@H]1OP(=O)(O)O [Compound of Present Invention, 6-O-{2-Deoxy-2-[(R)-3-dodecanoyloxytetradecanoylamino]-3-O-[(R)-3-tetradecanoyloxytetradecanoyl]-4-O-phosphono-β-D-glucopyranosyl}-2-deoxy-2-[(R)-3-hydroxytetradecanoylamino]-3-O-[(R)-3-hydroxytetradecanoyl]-1-O-phosphono-α-D-glucopyranose] | 2/3 | 4.06 ± 0.35 | 9.05 ± 0.70 | 11.76 ± 0.13 | 3/4 | 2.38 | – | – | –
CCCCCCCCCCC[C@@H](O)CC(=O)N[C@H]1[C@H](OC[C@H]2O[C@H](OP(=O)(O)O)[C@H](NC(=O)C[C@H](O)CCCCCCCCCCC)[C@@H](OC(=O)C[C@H](O)CCCCCCCCCCC)[C@@H]2O)O[C@H](CO)[C@@H](OP(=O)(O)O)[C@@H]1OC(=O)C[C@H](O)CCCCCCCCCCC [Control Compound 1, 6-O-{2-Deoxy-2-[(R)-3-hydroxytetradecanoylamino]-3-O-[(R)-3-hydroxytetradecanoyl]-4-O-phosphono-β-D-glucopyranosyl}-2-deoxy-2-[(R)-3-hydroxytetradecanoylamino]-3-O-[(R)-3-hydroxytetradecanoyl]-1-O-phosphono-α-D-glucopyranose] | – | – | – | – | 0/3 | 1.34 | 0/3 | negative | negative
